# Assay results published in publication PMC4280904 (Journal of Veterinary Pharmacology and Therapeutics, 2014).
# Columns and labels:
# Set-up in all cases: species or system Wistar rats
# NAT2 = assay: In vivo enzyme induction: N-acetyltransferase, procainamide; conditions: rats, 20 mg/kg i.p. once daily 7 days
# CYP1A = assay: In vivo enzyme induction: ethylresorufin O-deethylase; conditions: rats
# CYP2A = assay: In vivo enzyme induction: ethoxycoumarin O-deethylase; conditions: rats
# CYP2B = assay: In vivo enzyme induction: pentylresorufin O-depentylase; conditions: rats
# CYP3A = assay: In vivo enzyme induction: erythromycin N-demethylase; conditions: rats, 40 mg/kg p.o. once daily 7 days
# [1] = 40 mg/kg p.o. once daily 7 days
# [2] = 40 mg/kg i.p. once daily 7 days
smiles,measurement,setting,value
"C[C@@H]1C[C@H]2[C@@H]3CCC4=CC(=O)C=C[C@]4(C)[C@@]3(F)[C@@H](O)C[C@]2(C)[C@@]1(O)C(=O)CO [Dexamethasone, dexamethasone, reference compound]",NAT2 activity compared with untreated controls,NAT2,1.8 fold
"CCC1(c2ccccc2)C(=O)NC(=O)NC1=O [Phenobarbital, phenobarbital]",CYP1A enzyme activity relative to control,CYP1A; [1],5.5 fold
same,CYP2A enzyme activity relative to control,CYP2A; [1],2.6 fold
same,CYP2B enzyme activity relative to control,CYP2B; [1],17.7 fold
same,CYP3A enzyme activity relative to control,CYP3A,3.5 fold
O=c1cc(-c2ccccc2)oc2ccc3ccccc3c12 [β-naphthoflavone],CYP1A enzyme activity relative to control,CYP1A; [2],25.1 fold
same,CYP2A enzyme activity relative to control,CYP2A; [2],15.8 fold
same,CYP2B enzyme activity relative to control,CYP2B; [2],3.8 fold
